Assay results taken from patent US20040197824A1, “Method for selective radioactive marking of peptides” (priority 2002, published 2004).

Legend:
PTH1-receptor = PTH1-receptor (Homo sapiens, UniProt Q03431); assay: competitive binding study at PTH1-receptor; settings: radio ligand concentration of 1 nM; FIG. 15
Y-receptor Y1 = molecular target: T1, Y-receptor Y1 (Homo sapiens, UniProt P25929); assay: competitive binding studies at the Y1 receptor; settings: FIG. 9
T1 sequence (P25929 1-384): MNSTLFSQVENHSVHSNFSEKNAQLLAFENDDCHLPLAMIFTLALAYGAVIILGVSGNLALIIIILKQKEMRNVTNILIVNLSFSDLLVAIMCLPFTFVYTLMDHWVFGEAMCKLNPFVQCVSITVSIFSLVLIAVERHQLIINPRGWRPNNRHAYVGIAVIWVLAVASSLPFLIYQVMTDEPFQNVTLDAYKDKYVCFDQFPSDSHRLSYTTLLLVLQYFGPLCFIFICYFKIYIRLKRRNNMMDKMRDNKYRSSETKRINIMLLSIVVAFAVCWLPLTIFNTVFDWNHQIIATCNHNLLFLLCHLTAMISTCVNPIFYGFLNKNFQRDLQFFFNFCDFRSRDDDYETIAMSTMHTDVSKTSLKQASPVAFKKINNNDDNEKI
Description: (§1) The performance of the binding assays was performed as previously described.^(5)

Y-receptor Y2 = molecular target: T2, Y-receptor Y2 (Homo sapiens, UniProt P49146); assay: competitive binding studies at the Y2 receptor; settings: FIG. 9
T2 sequence (P49146 1-381): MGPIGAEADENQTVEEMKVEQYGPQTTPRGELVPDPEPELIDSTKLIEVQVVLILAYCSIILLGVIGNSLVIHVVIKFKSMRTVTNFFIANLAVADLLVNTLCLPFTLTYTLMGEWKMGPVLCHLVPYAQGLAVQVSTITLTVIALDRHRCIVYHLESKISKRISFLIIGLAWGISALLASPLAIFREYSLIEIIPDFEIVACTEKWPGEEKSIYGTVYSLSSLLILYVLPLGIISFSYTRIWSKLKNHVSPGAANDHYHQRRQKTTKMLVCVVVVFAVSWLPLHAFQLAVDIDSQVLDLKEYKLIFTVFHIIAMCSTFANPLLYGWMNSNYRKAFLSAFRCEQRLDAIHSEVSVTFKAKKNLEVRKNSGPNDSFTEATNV
Description: as §1

Y-receptor Y5 = molecular target: T3, Y-receptor Y5 (Homo sapiens, UniProt Q15761); assay: competitive binding studies at the Y5 receptor; settings: FIG. 9
T3 sequence (Q15761 1-445): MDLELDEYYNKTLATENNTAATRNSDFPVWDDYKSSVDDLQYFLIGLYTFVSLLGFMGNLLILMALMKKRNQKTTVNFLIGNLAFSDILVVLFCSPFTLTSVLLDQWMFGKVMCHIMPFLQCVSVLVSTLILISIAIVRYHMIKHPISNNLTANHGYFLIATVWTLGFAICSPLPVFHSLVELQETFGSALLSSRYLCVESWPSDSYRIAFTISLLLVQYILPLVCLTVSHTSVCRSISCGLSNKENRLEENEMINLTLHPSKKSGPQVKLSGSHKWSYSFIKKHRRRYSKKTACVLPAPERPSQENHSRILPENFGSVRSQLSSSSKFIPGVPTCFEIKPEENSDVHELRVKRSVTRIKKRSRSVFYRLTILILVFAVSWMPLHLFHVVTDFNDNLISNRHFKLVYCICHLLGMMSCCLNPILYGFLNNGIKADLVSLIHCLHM
Description: as §1

PTH1-receptor, sequence (Q03431 27-593): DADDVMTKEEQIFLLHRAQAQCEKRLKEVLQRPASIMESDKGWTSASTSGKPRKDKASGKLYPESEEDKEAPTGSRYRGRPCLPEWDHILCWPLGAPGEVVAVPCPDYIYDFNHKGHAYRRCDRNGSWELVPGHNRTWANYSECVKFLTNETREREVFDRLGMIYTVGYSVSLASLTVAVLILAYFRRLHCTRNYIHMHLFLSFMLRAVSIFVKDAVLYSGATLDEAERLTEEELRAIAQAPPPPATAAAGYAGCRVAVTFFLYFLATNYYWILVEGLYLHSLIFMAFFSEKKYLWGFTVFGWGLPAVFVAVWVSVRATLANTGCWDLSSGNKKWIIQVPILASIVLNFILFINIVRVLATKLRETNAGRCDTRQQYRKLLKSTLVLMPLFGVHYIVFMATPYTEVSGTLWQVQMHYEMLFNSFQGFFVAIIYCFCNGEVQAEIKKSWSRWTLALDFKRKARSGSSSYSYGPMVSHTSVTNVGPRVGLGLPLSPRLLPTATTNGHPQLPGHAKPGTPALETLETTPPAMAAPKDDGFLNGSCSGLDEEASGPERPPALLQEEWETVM

Molecule | behavior in competitive binding relative to non-marked PTH (1-34)-amide (PTH1-receptor) | behavior in competitive binding in comparison to commercially available ^3H-NPY (Y-receptor Y1) | behavior in competitive binding in comparison to commercially available ^3H-NPY (Y-receptor Y2) | behavior in competitive binding in comparison to commercially available ^3H-NPY (Y-receptor Y5)
[3H]CC([3H])C(=O)NCCCC[C@H](NC(=O)CNC(=O)[C@H](CC(C)C)NC(=O)[C@H](CC(N)=O)NC(=O)[C@H](Cc1c[nH]cn1)NC(=O)[C@H](CCSC)NC(=O)[C@H](CC(C)C)NC(=O)[C@H](CCC(N)=O)NC(=O)[C@@H](NC(=O)[C@H](CCC(=O)O)NC(=O)[C@H](CO)NC(=O)[C@@H](NC(=O)[C@@H](N)CO)C(C)C)[C@@H](C)CC)C(=O)N[C@@H](Cc1c[nH]cn1)C(=O)N[C@@H](CC(C)C)C(=O)N[C@@H](CC(N)=O)C(=O)N[C@@H](CO)C(=O)N[C@@H](CCSC)C(=O)N[C@@H](CCC(=O)O)C(=O)N[C@@H](CCCNC(=N)N)C(=O)N[C@H](C(=O)N[C@@H](CCC(=O)O)C(=O)N[C@@H](Cc1c[nH]c2ccccc12)C(=O)N[C@@H](CC(C)C)C(=O)N[C@@H](CCCNC(=N)N)C(=O)N[C@@H](CCCCN)C(=O)N[C@@H](CCCCN)C(=O)N[C@@H](CC(C)C)C(=O)N[C@@H](CCC(N)=O)C(=O)N[C@@H](CC(=O)O)C(=O)N[C@H](C(=O)N[C@@H](Cc1c[nH]cn1)C(=O)N[C@@H](CC(N)=O)C(=O)N[C@@H](Cc1ccccc1)C(N)=O)C(C)C)C(C)C (stereo partly shown) [PTH (1-34)-amide marked at position 13, ^3H-proprionyl-Lys^13-PTH(1-34)-amide] | nearly identical behavior | – | – | –
^3H-proprionyl-Lys^4-NPY [^3H-NPY] | – | identical behavior | identical behavior | identical behavior
